Assay results from patent US20230226152A1, “INTERLEUKIN-2 POLYPEPTIDE CONJUGATES AND METHODS OF USE THEREOF” (Ambrx, Inc., priority 2020, published 2023).

Test system: CTLL-2 cells
Test: CTLL-2 cell expansion / proliferation (binding) assay
Format: cell-based
Description: T cell expansion test of IL-2 variants in CTLL-2 cells. CTLL-2 cell expansion assay was performed using transiently expressed F42 variant supernatant from transfected engineered CHO cells. […] Cell proliferation was performed using Cell Titer Glo (Promega, WI). Luminescent signal was read on TECAN genios pro. […] A general procedure for studying the IL-2 variants of the present invention is shown in the following:
Utilizing a CTLL-2 cell expansion assay as disclosed in the Examples, 20 different IL-2 variants including 16 originally selected sites (wild type included) and 4 additional sites (K32, K48, K49, K76) known in the art were screened (Charych, D., et al., PLoS One, 12(7): p. e0179431, 2017). […] Identified variants were further analyzed for their binding capabilities after PEGylation.

**Q.** For “F42: IL-2 with unnatural amino acid (pAF) at F42, SEQ ID NO: 9”, which EC50 (transiently expressed variant supernatant from engineered CHO cells, Cell Titer Glo) is on record?
**A.** Its EC50 is “around 0.24 ng/mL”.

**Q.** And the “function retained compared to wild type control” value (wild type IL-2 = 100% proliferation)?
**A.** Its value is 95%.
